Reference: article PMC8791477, “Evaluation of SARS-CoV-2 entry, inflammation and new therapeutics in human lung tissue cells” (PLoS Pathogens, 2022)
Counter-ions that a name gives are not always drawn. Like-named read-outs stand apart in the source and are kept apart here.

Columns and labels:
[1] = test system: VSV*ΔG(Luc)-S virus (SARS-CoV-2 spike, D614G); conditions: for EC50: read-out: EC50 HLT
[2] = test system: VSV*ΔG(Luc)-S virus (SARS-CoV-2 spike, D614G); conditions: for EC50: read-out: EC50 Vero E6

Compound	EC50 [1] [µM]	EC50 HLT [1]	EC50 Vero E6 [2]	further results
CN(C)C(=O)COC(=O)Cc1ccc(OC(=O)c2ccc(NC(=N)N)cc2)cc1 [Camostat, Camostat mesylate]				viral entry in HLT cells with entry-factor blockers (in words) [1]: significantly inhibited viral entry
Cc1ccc(-c2cc(C(F)(F)F)nn2-c2ccc(S(N)(=O)=O)cc2)cc1 [Celecoxib]	55.7			EC50 [2]: 13 µM
COc1ccc2cc1Oc1ccc(cc1)C[C@H]1c3c(cc4c(c3Oc3cc5c(cc3OC)CCN(C)[C@@H]5C2)OCO4)CCN1C [Cepharanthine]				SI HLT (CC50/EC50) [1]: 2.64; SI VeroE6 (CC50/EC50) [2]: 48.47
CC(C)C(=O)OCC(=O)[C@@]12O[C@H](C3CCCCC3)O[C@@H]1C[C@H]1[C@@H]3CCC4=CC(=O)C=C[C@]4(C)[C@H]3[C@@H](O)C[C@@]12C [Ciclesonide]	16.4			EC50 [2]: 20.5 µM
C[C@]12CCC(=O)C=C1CC[C@@H]1[C@@H]2[C@@H](O)C[C@@]2(C)[C@H]1CC[C@]2(O)C(=O)CO [Cortisol]		No effect	No effect	
C[C@@H]1C[C@H]2[C@@H]3CCC4=CC(=O)C=C[C@]4(C)[C@@]3(F)[C@@H](O)C[C@]2(C)[C@@]1(O)C(=O)CO [Dexamethasone]		No effect	No effect	viral entry in VeroE6 cells (in words) [2]: without any apparent impact
O=C1C[C@@H](c2ccc(O)c(O)c2)Oc2cc(O)cc(O)c21 [Eriodictyol]	90			viral entry in HLT cells (in words) [1]: certain activity
CC1(C)[C@@H](O[C@H]2O[C@H](C(=O)O)[C@@H](O)[C@H](O)[C@H]2O[C@@H]2O[C@H](C(=O)O)[C@@H](O)[C@H](O)[C@H]2O)CC[C@]2(C)[C@H]3C(=O)C=C4[C@@H]5C[C@@](C)(C(=O)O)CC[C@]5(C)CC[C@@]4(C)[C@]3(C)CC[C@@H]12 [Glycyrrhizin]		No effect	No effect	
Oc1ccc(CC2NCCc3cc(O)c(O)cc32)cc1 (stereo not shown) [Higenamine, Higenamine hydrochloride]		No effect	No effect	
Cc1cc(O)c2c(=O)c3c(O)cc(O)c4c5c(O)cc(O)c6c(=O)c7c(O)cc(C)c8c1c2c(c34)c(c78)c65 [Hypericin]	0.31			EC50 [2]: 1.24 µM
CC(C)Cc1ccc(C(C)C(=O)O)cc1 (stereo not shown) [Ibuprofen]		No effect	No effect	
O=C1Nc2ccccc2/C1=C1/Nc2ccccc2C1=O [Indirubin]		No effect	No effect	
CCCCCCCCCCCC(=O)O [Lauric acid]		No effect	No effect	
CC1(C)Cc2c(-c3ccccc3)c(-c3ccc(Cl)cc3)c(CC(=O)O)n2C1 [Licofelone]	32.2			
O=c1cc(-c2ccc(O)c(O)c2)oc2cc(O)cc(O)c12 [Luteolin]	~82.4			EC50 [2]: ~70.7 µM
CN(C)C(=N)N=C(N)N [Metformin]		No effect	No effect	
CCCCCCCCCC(=O)OCC(O)CO (stereo not shown) [Monocaprin]		No effect	No effect	
CCCCCCCCCCCC(=O)OCC(O)CO (stereo not shown) [Monolaurin]		No effect	No effect	
O=c1c(O)c(-c2cc(O)c(O)c(O)c2)oc2cc(O)cc(O)c12 [Myricetin]		No effect	No effect	

Compound	EC50 [1] [µM]	EC50 HLT [1]	EC50 Vero E6 [2]	further results
O=C1CN(/N=C/c2ccc([N+](=O)[O-])o2)C(=O)N1 [Nitrofurantoin]		No effect	No effect	
Cc1cccn2c(=O)c(-c3nnn[nH]3)cnc12 [Pemirolast, Pemirolast potassium]		No effect	No effect	
[H]/N=C(/N)N/C(=N/[H])NCCc1ccccc1 [Phenformin]	38.2			viral entry in HLT cells (in words) [1]: significantly reduced viral entry
C[C@]12C=CC(=O)C=C1CC[C@@H]1[C@@H]2C(=O)C[C@@]2(C)[C@H]1CC[C@]2(O)C(=O)CO [Prednisone]		Some effect	No effect	viral entry in HLT cells (in words) [1]: partial reduction of viral entry; viral entry in VeroE6 cells (in words) [2]: without any apparent impact
NC(=O)[C@@H]1CCCN1C(=O)[C@H](Cc1c[nH]cn1)NC(=O)[C@@H]1CCC(=O)N1 [Protilerin]		No effect	No effect	
O=c1c(O)c(-c2ccc(O)c(O)c2)oc2cc(O)cc(O)c12 [Quercetin]				viral entry in VeroE6 cells (in words) [2]: some viral entry suppression; EC50 [2]: > 100 µM
CCCCCCCCCCCCOS(=O)(=O)[O-].[Na+] [SLS, Sodium lauryl sulfate]	> 100			EC50 [2]: ~26.4 µM
N[C@@H](CC(=O)N1CCn2c(nnc2C(F)(F)F)C1)Cc1cc(F)c(F)cc1F [Sitagliptin]		No effect	No effect	
Cc1ccnc(NS(=O)(=O)c2ccc(N)cc2)n1 [Sulfamerazine]		No effect	No effect	
Cc1cc(NS(=O)(=O)c2ccc(N)cc2)no1 [Sulfamethoxazole]		No effect	No effect	
CC1=C(CC(=O)O)c2cc(F)ccc2/C1=C\c1ccc([S+](C)[O-])cc1 (stereo not shown) [Sulindac]	> 100		No effect	
C[C@]1(Cn2ccnn2)[C@H](C(=O)O)N2C(=O)C[C@H]2S1(=O)=O [Tazobactam]		No effect	No effect	
C[C@H](O)[C@H](O)[C@H]1CNc2nc(N)[nH]c(=O)c2N1 [Tetrahydrobiopterin, Tetrahydrobiopterin dihydrochloride]		No effect	No effect	
CC(C)[C@H](N)C(=O)OCCOCn1cnc2c(=O)[nH]c(N)nc21 [Valaciclovir]	> 100			viral entry in HLT cells (in words) [1]: some inhibitory potential
N#C[C@@H]1CCCN1C(=O)CNC12CC3CC(CC(O)(C3)C1)C2 [Vidagliptin, Vildagliptin]		No effect	No effect	
Nc1ncnc2c1ncn2[C@@H]1O[C@H](CO)[C@@H](O)[C@@H]1O [Vidarabine]	51.6			EC50 [2]: > 100 µM
Ergoloid mesylates	9.17			SI HLT (CC50/EC50) [1]: 11.38; viral entry inhibition in HLT cells [1]: ~ 90%; SI VeroE6 (CC50/EC50) [2]: 3.9; EC50 [2]: 4.78 µM
Ivermectin	13			SI HLT (CC50/EC50) [1]: 7.75; viral entry in HLT cells (in words) [1]: effective antiviral; SI VeroE6 (CC50/EC50) [2]: 1.4; EC50 [2]: 13.9 µM
recombinant protein AXL				viral entry in HLT cells with entry-factor blockers (in words) [1]: inhibited SARS-CoV-2 entry
